≈ marks a conversion by molar mass, not a printed value. Where a SMILES comes first, the peptide text is derived from it. [ ]: non-standard residue; d: D form. dLac(3-vinyl) = C=CC[C@@H](O)C(=O)O; dHica = CC(C)C[C@@H](O)C(=O)O; NMeV = CN[C@H](C(=O)O)C(C)C; NMeA = CN[C@@H](C)C(=O)O; βAla = NCCC(=O)O

The experiment deals with Hepatitis B virus. The experiment can be described thus: Antiviral activity against Hepatitis B virus infected in human Hep3B cells assessed as surface antigen production. It counts as functional, organism-based, Hep 3B2.
In the case of `CC[C@H](C)[C@@H]1NC(=O)[C@@H]2CCCN2C(=O)[C@@H](CC(C)C)OC(=O)CCNC(=O)[C@H](C)N(C)C(=O)[C@H](C(C)C)N(C)C1=O` (cyclo(I[NMeV][NMeA][βAla][dHica]P)), the IC50 – broadly, the point on the concentration scale where inhibition reaches its midpoint – is 0.2 µg/mL (≈ 0.337 µM).

As for `C=CC[C@H]1OC(=O)CCNC(=O)[C@H](C)N(C)C(=O)[C@H](C(C)C)N(C)C(=O)[C@H]([C@@H](C)CC)NC(=O)[C@@H]2CCCN2C1=O` (cyclo(I[NMeV][NMeA][βAla][dLac(3-vinyl)]P)), the half-maximal inhibitory concentration (IC50) came to 0.1 µg/mL (≈ 0.173 µM).

Regarding `C=CC[C@H]1OC(=O)CCNC(=O)[C@H](C)N(C)C(=O)[C@H](C(C)C)NC(=O)[C@H]([C@@H](C)CC)NC(=O)[C@@H]2CCCN2C1=O` [DESMETHYLDESTRUXIN A], the IC50 is 1.2 µg/mL (≈ 2.13 µM).

Take `CC(C)C[C@H]1OC(=O)CCNC(=O)[C@H](C)N(C)C(=O)[C@H](C(C)C)NC(=O)[C@H](C(C)C)NC(=O)[C@@H]2CCCN2C1=O` [DESMETHYLDESTRUXIN B2] (cyclo([NMeA][βAla][dHica]PVV)): the IC50 amounted to 1.5 µg/mL (≈ 2.65 µM).

For the compound `CC[C@H](C)[C@@H]1NC(=O)[C@@H]2CCCN2C(=O)[C@@H](CC(C)C)OC(=O)CCNC(=O)[C@H](C)N(C)C(=O)[C@H](C(C)C)NC1=O` [DESMETHYLDESTRUXIN B] (cyclo(IV[NMeA][βAla][dHica]P)), the IC50 amounted to 0.6 µg/mL (≈ 1.03 µM).

As for `C=CC[C@H]1OC(=O)CCNC(=O)[C@H](C)N(C)C(=O)[C@H](C(C)C)N(C)C(=O)[C@H](C(C)C)NC(=O)[C@@H]2CCCN2C1=O` [DESTRUXIN A2] (cyclo([NMeA][βAla][dLac(3-vinyl)]PV[NMeV])), the IC50 came out at 0.4 µg/mL (≈ 0.71 µM).

On to `CC(C)C[C@H]1OC(=O)CCNC(=O)[C@H](C)N(C)C(=O)[C@H](C(C)C)N(C)C(=O)[C@H](C(C)C)NC(=O)[C@@H]2CCCN2C1=O` [DESTRUXIN B2] (cyclo([NMeA][βAla][dHica]PV[NMeV])), for which the IC50 amounted to 0.3 µg/mL (≈ 0.517 µM).

Values taken from ChEMBL document CHEMBL1159235, “The novel desmethyldestruxin B2, from Metarhizium anisopliae, that suppresses hepatitis B virus surface antigen production in human hepatoma cells” (J Nat Prod, 1995).
